System: rice
Assay: Low temperature assay on rice seedlings
Type: in vivo
Procedure: According to a low temperature assay, we measured parameters including plant height, number of leaf, area of leaf, number of tiller, weight of root at low temperature to completely determine effects of the natural brassinolide analogues on the resistance to low temperature of a plant.
The natural brassinolide analogues, BR1, BR2, BR3, BR4, BR5 and BR6, used herein, were those prepared by the method of Example 1. Respectively the analogues were dissolved into 95% (V/V) ethanol solution, and then diluted with pure water to 1 mg/L, 0.1 mg/L, 0.01 mg/L, 0.001 mg/L and 0.0001 mg/L. In addition, pure water was used as a control.
After rice seeds were disinfected by using 5% sodium hypochlorite solution treatment, they were rinsed with distilled water until their pH>7, placed into a petri dish in a dark incubator, and cultured by using water at 30° C.±2° C. for 9 days. Then respectively the nine-day-old etiolated seedlings of rice were immersed in the above solutions containing different concentrations of the natural brassinolide analogues or pure water, and cultured at the temperature of 1° C., 2° C., 3° C., 4° C. and 5° C. for 24 hr. The parameters including plant height, area of leaf and weight of root after 3, 6, 9 and 12 days and number of leaf and number of tiller after 12 days were measured.

SMILES: CC(C)[C@H](C)[C@@H](O)[C@H](O)[C@@H](C)[C@H]1CCC2C3COC(=O)C4C[C@H](O)[C@H](O)C[C@]4(C)C3CC[C@@]21C (stereo partly drawn) [BR1]
- Area of leaf (0.0001 mg/l, 1 °C, 3 days): 10 cm^2
- Height (0.0001 mg/l, 1 °C, 3 days): 7.1 cm
- Weight of root (0.0001 mg/l, 1 °C, 3 days): 2.8 g
- Area of leaf (0.0001 mg/l, 1 °C, 6 days): 11.2 cm^2
- Height (0.0001 mg/l, 1 °C, 6 days): 7.2 cm
- Weight of root (0.0001 mg/l, 1 °C, 6 days): 3.1 g
- Area of leaf (0.0001 mg/l, 1 °C, 9 days): 12.4 cm^2
- Height (0.0001 mg/l, 1 °C, 9 days): 7.3 cm
- Weight of root (0.0001 mg/l, 1 °C, 9 days): 3.4 g
- Area of leaf (0.0001 mg/l, 1 °C, 12 days): 13 cm^2
- Height (0.0001 mg/l, 1 °C, 12 days): 7.4 cm
- Number of leaf (0.0001 mg/l, 1 °C, 12 days): 3
- Number of tiller (0.0001 mg/l, 1 °C, 12 days): 3
- Weight of root (0.0001 mg/l, 1 °C, 12 days): 3.9 g
- Area of leaf (0.0001 mg/l, 2 °C, 3 days): 10.2 cm^2
- Height (0.0001 mg/l, 2 °C, 3 days): 7.1 cm
- Weight of root (0.0001 mg/l, 2 °C, 3 days): 2.8 g
- Area of leaf (0.0001 mg/l, 2 °C, 6 days): 11.7 cm^2
- Height (0.0001 mg/l, 2 °C, 6 days): 7.2 cm
- Weight of root (0.0001 mg/l, 2 °C, 6 days): 3.0 g
- Area of leaf (0.0001 mg/l, 2 °C, 9 days): 12.6 cm^2
- Height (0.0001 mg/l, 2 °C, 9 days): 7.3 cm
- Weight of root (0.0001 mg/l, 2 °C, 9 days): 3.2 g
- Area of leaf (0.0001 mg/l, 2 °C, 12 days): 13 cm^2
- Height (0.0001 mg/l, 2 °C, 12 days): 7.5 cm
- Number of leaf (0.0001 mg/l, 2 °C, 12 days): 3
- Number of tiller (0.0001 mg/l, 2 °C, 12 days): 3
- Weight of root (0.0001 mg/l, 2 °C, 12 days): 3.9 g
- Area of leaf (0.0001 mg/l, 3 °C, 3 days): 10.4 cm^2
- Height (0.0001 mg/l, 3 °C, 3 days): 7.1 cm
- Weight of root (0.0001 mg/l, 3 °C, 3 days): 2.5 g
- Area of leaf (0.0001 mg/l, 3 °C, 6 days): 12 cm^2
- Height (0.0001 mg/l, 3 °C, 6 days): 7.2 cm
- Weight of root (0.0001 mg/l, 3 °C, 6 days): 2.6 g
- Area of leaf (0.0001 mg/l, 3 °C, 9 days): 12.6 cm^2
- Height (0.0001 mg/l, 3 °C, 9 days): 7.5 cm
- Weight of root (0.0001 mg/l, 3 °C, 9 days): 2.9 g
- Area of leaf (0.0001 mg/l, 3 °C, 12 days): 13.2 cm^2
- Height (0.0001 mg/l, 3 °C, 12 days): 7.6 cm
- Number of leaf (0.0001 mg/l, 3 °C, 12 days): 3
- Number of tiller (0.0001 mg/l, 3 °C, 12 days): 2
- Weight of root (0.0001 mg/l, 3 °C, 12 days): 2.9 g
- Area of leaf (0.0001 mg/l, 4 °C, 3 days): 10.6 cm^2
- Height (0.0001 mg/l, 4 °C, 3 days): 7.1 cm
- Weight of root (0.0001 mg/l, 4 °C, 3 days): 2.5 g
- Area of leaf (0.0001 mg/l, 4 °C, 6 days): 12.2 cm^2
- Height (0.0001 mg/l, 4 °C, 6 days): 7.3 cm
- Weight of root (0.0001 mg/l, 4 °C, 6 days): 2.6 g
- Area of leaf (0.0001 mg/l, 4 °C, 9 days): 13 cm^2
- Height (0.0001 mg/l, 4 °C, 9 days): 7.5 cm
- Weight of root (0.0001 mg/l, 4 °C, 9 days): 2.9 g
- Area of leaf (0.0001 mg/l, 4 °C, 12 days): 13.4 cm^2
- Height (0.0001 mg/l, 4 °C, 12 days): 7.7 cm
- Number of leaf (0.0001 mg/l, 4 °C, 12 days): 3
- Number of tiller (0.0001 mg/l, 4 °C, 12 days): 2
- Weight of root (0.0001 mg/l, 4 °C, 12 days): 2.9 g
- Area of leaf (0.0001 mg/l, 5 °C, 3 days): 10.6 cm^2
- Height (0.0001 mg/l, 5 °C, 3 days): 7.2 cm
- Weight of root (0.0001 mg/l, 5 °C, 3 days): 2.6 g
- Area of leaf (0.0001 mg/l, 5 °C, 6 days): 12.4 cm^2
- Height (0.0001 mg/l, 5 °C, 6 days): 7.4 cm
- Weight of root (0.0001 mg/l, 5 °C, 6 days): 2.8 g
- Area of leaf (0.0001 mg/l, 5 °C, 9 days): 13.6 cm^2
- Height (0.0001 mg/l, 5 °C, 9 days): 7.5 cm
- Weight of root (0.0001 mg/l, 5 °C, 9 days): 2.9 g
- Area of leaf (0.0001 mg/l, 5 °C, 12 days): 14 cm^2
- Height (0.0001 mg/l, 5 °C, 12 days): 7.8 cm
- Number of leaf (0.0001 mg/l, 5 °C, 12 days): 3
- Number of tiller (0.0001 mg/l, 5 °C, 12 days): 2
- Weight of root (0.0001 mg/l, 5 °C, 12 days): 3.0 g
- Area of leaf (0.001 mg/l, 1 °C, 3 days): 10.1 cm^2
- Height (0.001 mg/l, 1 °C, 3 days): 6.9 cm
- Weight of root (0.001 mg/l, 1 °C, 3 days): 2.8 g
- Area of leaf (0.001 mg/l, 1 °C, 6 days): 11.3 cm^2
- Height (0.001 mg/l, 1 °C, 6 days): 7.1 cm
- Weight of root (0.001 mg/l, 1 °C, 6 days): 3.1 g
- Area of leaf (0.001 mg/l, 1 °C, 9 days): 12.6 cm^2
- Height (0.001 mg/l, 1 °C, 9 days): 7.3 cm
- Weight of root (0.001 mg/l, 1 °C, 9 days): 3.4 g
- Area of leaf (0.001 mg/l, 1 °C, 12 days): 13 cm^2
- Height (0.001 mg/l, 1 °C, 12 days): 7.3 cm
- Number of leaf (0.001 mg/l, 1 °C, 12 days): 3
- Number of tiller (0.001 mg/l, 1 °C, 12 days): 3
- Weight of root (0.001 mg/l, 1 °C, 12 days): 3.9 g
- Area of leaf (0.001 mg/l, 2 °C, 3 days): 10.3 cm^2
- Height (0.001 mg/l, 2 °C, 3 days): 6.9 cm
- Weight of root (0.001 mg/l, 2 °C, 3 days): 2.8 g

From US9326506B2, “Preparation method, agricultural composition and applications of natural brassinolide analogs” (CHENGDU NEWSUN CROPSCIENCE CO., LTD, priority 2012, dated 2016)
